How the values were obtained:
[1] = tested on: native Ih in normal rat L4 dorsal root ganglion neurons; assay: Whole cell patch clamp of native Ih in dissociated normal rat L4 DRG neurons, lidocaine block; format: cell-based
Procedure: Lidocaine was tested for its effect on Ih expressed in dissociated L4 dorsal root ganglion neurons from uninjured rats to determine whether this well known Na channel blocker could have other mechanisms of action.
DRG were extirpated, dissociated and cultured 3-4 days on poly-D-lysine coated coverslips as described in Example 10. Ih was measured using the whole cell configuration of the patch clamp technique according to the methods described in Example 10 with the exception that the pipette solution was the solution used in Example 3. Neurons were challenged with a family of hyperpolarizing voltage pulses (−60 mV to −150 mV in increments of 10 mV) from a holding potential of −50 mV. Ih was determined at the end of 600 msec duration test pulses. Lidocaine was bath-applied at neutral pH and the percent inhibition of control Ih was determined after lidocaine achieved steady state block. Plotted is the steady state current observed at −134 mV as a percent of control after incubation of lidocaine at the indicated concentrations. […] Lidocaine block was reversible. Data were obtained from 3 cells having control Ih densities of −1.5, −2.0 and −2.2 pA/pF.

[2] = tested on: Ih in rabbit sinoatrial node; conditions: rabbit sinoatrial node (Rocchetti et al. 1999); read-out: ED50 of Ih block previously reported; cited from earlier work
Ih = conditions: applied intracellularly at 5 or 10 mM (Perkins et al. 1995); cited from earlier work
CFA-injected rats = assay: Tactile allodynia (von Frey) in complete Freund's adjuvant (CFA) paw model of inflammatory pain; format: in vivo, rat; conditions: i.p., ZD7288 10 mg/kg, ibuprofen 30 mg/kg, morphine 3 mg/kg, gabapentin 100 mg/kg
[3] = tested on: preclinical models of neuropathic pain; conditions: Chaplan 1999; cited from earlier work
[4] = tested on: rat mild thermal injury model; assay: Spontaneous pain behaviors in rat mild thermal injury (first-degree burn) model; format: in vivo; conditions: 30 and 60 min after i.p. administration

CCN(CC)CC(=O)Nc1c(C)cccc1C [lidocaine]
reversibility of Ih block [1]: reversible
EC50 ([1]; bath-applied at neutral pH, current at −134 mV, 3 cells, read-out: ED50 of concentration-dependent block of Ih): 23 µM
EC50 [2]: 38.2 µM

CC[N+](CC)(CC)CC(=O)Nc1c(C)cccc1C [QX-314]
block of Ih (Ih): blocks Ih

NCC1(CC(=O)O)CCCCC1 [gabapentin]
suppression of CFA-induced tactile allodynia (CFA-injected rats): not

CC(C)Cc1ccc(C(C)C(=O)O)cc1 (stereo not shown) [ibuprofen]
suppression of CFA-induced tactile allodynia (CFA-injected rats): suppressed
suppression of CFA-induced tactile allodynia (CFA-injected rats; listed as Ibuprofen): some efficacy

CCCCN1CCCCC1C(=O)Nc1c(C)cccc1C (stereo not shown) [bupivacaine]
anti-hyperalgesic activity [3]: does not possess any anti-hyperalgesic activity

CN1CC[C@]23c4c5ccc(O)c4O[C@H]2[C@@H](O)C=C[C@H]3[C@H]1C5 [morphine]
suppression of CFA-induced tactile allodynia (CFA-injected rats): suppressed
suppression of spontaneous pain behaviors [4]: near complete suppression

Source: US20030022812A1, “Treating pain by targeting hyperpolarization-activated, cyclic nucleotide-gated channels” (priority 2001, published 2003)
